ChEMBL document CHEMBL6153170 (J Med Chem, 2025)
Active and inactive are the calls of the source. The calls are words filed in the database; no cut-off is given here.

Tests used:
[1] = Toxicity in C57 mouse assessed as myelosuppression by measuring MCV level at 20 mg/kg/day, IG administered for 14 days by heat map analysis; type: organism-based; conditions: in vivo, po, 336 h, time 14 day
[2] = tested on: Jurkat; assay: Cytotoxicity against human Jurkat T cells assessed as reduction in cell viability at 0.01 to 1 uM incubated for 48 hrs; type: functional, cell-based; conditions: dose 0.01-1 µM
[3] = tested on: Jurkat; assay: Effect on acetylated histone H3 protein level in human Jurkat T cells at 0.1 to 2 uM incubated for 12 hrs by Western blot analysis; type: functional, cell-based; conditions: dose 0.1-2 µM
[4] = tested on: B16-F10; assay: Effect on acetylated histone H3 protein level in mouse B16-F10 cells at 0.1 to 2 uM incubated for 12 hrs by Western blot analysis; type: functional, cell-based; conditions: dose 0.1-2 µM
[5] = molecular target: T1, Histone deacetylase 8 (Mus musculus) (UniProt Q8VH37); assay: Inhibition of HDAC8 in mouse B16-F10 cells assessed as increase in acetylated SMC3 level incubated for 12 hrs by Western blot analysis; type: cell-based
T1 sequence (whole entry): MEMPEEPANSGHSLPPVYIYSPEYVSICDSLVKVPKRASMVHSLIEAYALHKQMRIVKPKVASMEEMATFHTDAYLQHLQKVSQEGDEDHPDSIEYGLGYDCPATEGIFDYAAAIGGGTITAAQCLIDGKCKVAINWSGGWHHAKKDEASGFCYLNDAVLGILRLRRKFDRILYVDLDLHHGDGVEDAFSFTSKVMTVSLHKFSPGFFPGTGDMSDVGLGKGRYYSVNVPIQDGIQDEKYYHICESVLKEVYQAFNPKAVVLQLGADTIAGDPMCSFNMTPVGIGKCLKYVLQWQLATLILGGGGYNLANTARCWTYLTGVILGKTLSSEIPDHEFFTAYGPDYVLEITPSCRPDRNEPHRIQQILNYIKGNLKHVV

[6] = molecular target: T2, Protein deacetylase HDAC6 (Mus musculus) (UniProt Q9Z2V5); assay: Inhibition of HDAC6 in mouse B16-F10 cells assessed as increase in acetylated alpha-tubulin level incubated for 12 hrs by Western blot analysis; type: cell-based; conditions: dose 0.1-2 µM
T2 sequence (whole entry): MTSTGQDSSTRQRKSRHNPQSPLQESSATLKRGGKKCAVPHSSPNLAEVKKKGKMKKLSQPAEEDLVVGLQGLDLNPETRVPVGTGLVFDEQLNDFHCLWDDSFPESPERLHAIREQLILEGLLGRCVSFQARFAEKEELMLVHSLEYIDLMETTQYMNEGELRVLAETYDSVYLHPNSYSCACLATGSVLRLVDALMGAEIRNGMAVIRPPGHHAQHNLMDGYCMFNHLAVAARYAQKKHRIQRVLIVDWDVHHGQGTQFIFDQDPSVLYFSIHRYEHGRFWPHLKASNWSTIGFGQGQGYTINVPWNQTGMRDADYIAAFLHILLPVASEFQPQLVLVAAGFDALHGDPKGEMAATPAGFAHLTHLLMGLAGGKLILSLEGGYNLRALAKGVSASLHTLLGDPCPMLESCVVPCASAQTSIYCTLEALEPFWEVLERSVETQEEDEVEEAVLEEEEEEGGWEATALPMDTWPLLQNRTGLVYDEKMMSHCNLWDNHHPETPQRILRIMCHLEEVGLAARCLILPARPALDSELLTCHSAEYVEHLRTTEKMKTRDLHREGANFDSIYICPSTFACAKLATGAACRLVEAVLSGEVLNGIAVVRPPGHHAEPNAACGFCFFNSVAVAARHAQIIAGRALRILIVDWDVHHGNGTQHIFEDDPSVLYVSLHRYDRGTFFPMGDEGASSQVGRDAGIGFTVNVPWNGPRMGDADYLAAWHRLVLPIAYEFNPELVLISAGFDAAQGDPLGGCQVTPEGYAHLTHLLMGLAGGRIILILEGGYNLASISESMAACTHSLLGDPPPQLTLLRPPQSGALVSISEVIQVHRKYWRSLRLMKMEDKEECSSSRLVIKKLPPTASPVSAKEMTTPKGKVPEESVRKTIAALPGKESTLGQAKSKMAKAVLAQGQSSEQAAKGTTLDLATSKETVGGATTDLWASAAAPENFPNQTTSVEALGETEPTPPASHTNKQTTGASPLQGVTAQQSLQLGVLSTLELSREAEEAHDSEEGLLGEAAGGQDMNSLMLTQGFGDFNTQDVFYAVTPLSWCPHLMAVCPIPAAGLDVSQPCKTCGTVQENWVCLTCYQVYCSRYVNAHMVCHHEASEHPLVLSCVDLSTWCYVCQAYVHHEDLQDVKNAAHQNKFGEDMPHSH

[7] = Toxicity in C57 mouse assessed as change in ALB level at 20 mg/kg/day, IG administered for 14 days by heat map analysis; type: organism-based; conditions: in vivo, po, 336 h, time 14 day
[8] = Half-life in male Sprague-Dawley rat at 10 mg/kg, po measured after 48 hrs by triple quadrupole mass spectrometric analysis; type: ADME, organism-based; conditions: in vivo
[9] = tested on: B16-F10; assay: Antitumor immunity activity against mouse B16-F10 cells implanted in C57BL/6 mouse model assessed as CD3+ CD8+ T cell percentage in tumor at 20 mg/kg/day, ip administered for 14 days by flow cytometric analysis (reference value: 0.52 %); type: functional; conditions: time 14 day
[10] = Toxicity in C57 mouse assessed as myelosuppression by measuring hemoglobin level at 20 mg/kg/day, IG administered for 14 days by heat map analysis; type: organism-based; conditions: in vivo, po, 336 h, time 14 day
[11] = Toxicity in C57 mouse assessed as myelosuppression by measuring PDW level at 20 mg/kg/day, IG administered for 14 days by heat map analysis; type: organism-based; conditions: in vivo, po, 336 h, time 14 day
[12] = Toxicity in C57BL/6 mouse model implanted with mouse B16-F10 cells assessed as body weight loss at 20 mg/kg/day, ip administered for 14 days; type: organism-based; conditions: in vivo, 336 h, time 14 day
[13] = tested on: B16-F10; assay: Downregulation of p-STAT3 expression level in mouse B16-F10 cells at 0.1 to 2 uM incubated for 24 hrs by Western blot analysis; type: functional, cell-based; conditions: dose 0.1-2 µM
[14] = tested on: B16-F10; assay: Antitumor immunity activity against mouse B16-F10 cells implanted in C57BL/6 mouse model assessed as CD3+ CD4+ T cell percentage in tumor at 20 mg/kg/day, ip co-administered with ACY-1215 for 14 days by flow cytometric analysis (reference value: 0.095 %); type: functional; conditions: time 14 day
[15] = Toxicity in C57 mouse assessed as change in UREA level at 20 mg/kg/day, IG administered for 14 days by heat map analysis; type: organism-based; conditions: in vivo, po, 336 h, time 14 day
[16] = Cmax in male Sprague-Dawley rat at 2 mg/kg, iv measured after 48 hrs by triple quadrupole mass spectrometric analysis; type: ADME, organism-based; conditions: in vivo
[17] = AUC (0 to infinity) in male Sprague-Dawley rat at 10 mg/kg, po measured after 48 hrs by triple quadrupole mass spectrometric analysis; type: ADME, organism-based; conditions: in vivo
[18] = molecular target: Programmed cell death 1 ligand 1 (Mus musculus, UniProt Q9EP73); assay: Binding affinity to C-terminal 6His-tagged recombinant mouse PD-L1 (1 to 238 residues) expressed in HEK293 cells assessed as dissociation constant by ITC analysis
Programmed cell death 1 ligand 1, sequence (Q9EP73 whole entry, the tested form may be a part): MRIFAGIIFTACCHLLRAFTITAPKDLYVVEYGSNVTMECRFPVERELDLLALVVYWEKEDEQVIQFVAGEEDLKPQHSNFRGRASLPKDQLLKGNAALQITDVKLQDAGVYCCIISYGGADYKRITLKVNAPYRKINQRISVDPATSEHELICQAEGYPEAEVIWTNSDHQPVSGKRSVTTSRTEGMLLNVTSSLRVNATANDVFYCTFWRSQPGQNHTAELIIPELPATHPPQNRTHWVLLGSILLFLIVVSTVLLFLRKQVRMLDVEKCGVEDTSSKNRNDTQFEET

[19] = Tmax in male Sprague-Dawley rat at 10 mg/kg, po measured after 48 hrs by triple quadrupole mass spectrometric analysis; type: ADME, organism-based; conditions: in vivo

For `COc1nc(-c2cccc(-c3ccccc3)c2C)ccc1CNCCCCCCC(=O)NO`, which Activity [1] is on record?
The Activity was “Non-toxic”.

And the Activity [2]?
Its Activity is “inactive”.

What about the Activity [3] of the same compound?
Its Activity is “Active; Negligible Effect Observed”.

What about the Activity [4] of the same compound?
The Activity was “Active; Negligible Effect Observed”.

And the inhibition [5]?
Its inhibition is “inactive”.

And the inhibition [6]?
The inhibition was “Dose-dependent-effect”.

And the Activity [7]?
The Activity was “Non-toxic”.

What about the half-life [8] of the same compound?
Its half-life is 13.2 h.

And the Activity [9]?
The Activity was 11.19%.

And the Activity [10]?
The Activity was “Non-toxic”.

What about the Activity [11] of the same compound?
Its Activity is “Non-toxic”.

And the Activity [12]?
Its Activity is “Non-toxic”.

And the Activity [13]?
The Activity was “Active”.

And the Activity [14]?
The Activity was 7.72%.

And the Activity [15]?
The Activity was “Non-toxic”.

And the Cmax [16]?
The Cmax was 638 ng/mL.

What about the AUC [17] of the same compound?
The AUC was 1076.36 ng·h/mL.

What about the Kd [18] of the same compound?
Its Kd is 73 nM.

And the Tmax [19]?
Its Tmax is 5.55 h.
